Experimental data reported in patent publication US20200108043A1, “COMPOUNDS AND COMPOSITIONS FOR EXTENDING LIFESPAN OF A SUBJECT” (YALE UNIVERSITY, priority 2017, published 2020).
“Also recorded” adds a separate entry of the source. Residues, ends and D or L forms follow the SMILES beside them. *: point of attachment. Cbz = O=C(OCc1ccccc1)*

Key:
proteasome = molecular target: T1, proteasome (Saccharomyces cerevisiae, UniProt P30656); assay: Proteasome assay with fluorogenic substrate Suc-LLVY-AMC on yeast protein extracts; type: biochemical
T1 construct: with 50 μg of total protein in 200 μL of lysis buffer; endogenous in cells; host or cells: S. cerevisiae BY4741 wild-type or ΔUBR2 cells, glass-bead lysate (total protein extract)
Description: For protein extraction, 50 mL of cells were grown for 18 hours to an OD600 of approximately 0.8, then transferred to a 50 mL conical tube and centrifuged at 4255×g for 5 minutes at room temperature. The supernatant was discarded, and the cells were re-suspended in 150 μL of cold lysis buffer (50 mM Tris-HCl, pH 7.5, 0.5 mM EDTA, 5 mM MgCl2, with complete ULTRA mini protease inhibitor tablets, EDTA free) and transferred to a 1.5 mL tube. A ¼ volume of 500-750 μm glass beads (Acros Organics 397641000) was added to each tube. For 10 rounds, the tubes were chilled in ice water for 1 minute, then vortexed at maximum speed for 30 seconds to physically rupture the cells, and returned to the ice water. Samples were then spun for 3 minutes at 2500×g and 4° C., and the supernatant was transferred to a fresh tube. The solution was further clarified by centrifugation at 8000×g for 10 minutes at 4° C., and the supernatant was transferred to a fresh tube. Protein concentration was measured using a Nanodrop measuring the absorbance of the sample at 280 nm.
The proteasome assay used was described in Kruegel, et al. PLoS Genet. 7, (2011). The assay was performed in a 96-well clear-bottom plate (Costar 3603) with 50 μg of total protein in 200 μL of lysis buffer. The fluorogenic proteasome substrate Suc-LLVY-AMC (Bachem 1-1395) was added to a final concentration of 100 μM. Fluorescence intensity with an excitation wavelength of 380 nm and an emission wavelength of 460 nm was recorded at 5-minute intervals using a Neo2 plate reader (BioTek) set to mix constantly and maintain 30° C. Negative control reactions were performed in the presence of 50 μM MG132 (Sigma 474787), a proteasome inhibitor.

S. cerevisiae = type: cell-based
Description: To obtain the single-cell level data for the age and generation-durations of replicatively aging mother cells, data reported in Liu, P., et al., Cell Rep. 634-644 (2015) was re-analyzed. The data was collected in the same media condition (CSM 2% glucose) as reported elsewhere herein. Cells were grown for ˜24 hours in CSM 2% glucose prior to loading to the microfluidic device. Once cells were loaded, media was swapped to provide CSM 2% glucose control media (untreated), media containing DMSO as a vehicle control (American Bio AB00435), media containing 10 μM terreic acid (Sigma SML0480), media containing 10 μM mycophenolic acid (Sigma M5255), or media containing another compound at the indicated concentration. An automated microscope was used to track […], and replicative lifespan was later determined by counting the number of daughters produced before death. In the case of compound validation, only newborn cells were included in the lifespan experiment. To compare the replicative lifespan of labeled and unlabeled cells, only cells that were present within the traps at the start of the experiment were included. For these experiments, cells were loaded to the microfluidic device at an increased rate of 100 μL/min to increase the number of trapped mother cells. Green fluorescent images were also taken at the start of the experiment to confirm that the cells were visibly labeled.
Differences in lifespan characteristics were assessed through Log-Rank test using MATLAB with a cut-off value of P=0.05. The script for Log-Rank test was downloaded from MATLAB. Differences in proteasome activity were assessed using the unpaired, two-tailed, parametric t-test function of the GraphPad Prism software.
The Longevity Placement Test (LPT) was designed as a mutually exclusive, collectively exhaustive test to determine the relationship of a longevity intervention to a known genetic regulator of lifespan. For a given intervention that extends lifespan, any of three possible relationships may exist relative to a known genetic regulator of lifespan. (1) The intervention may act to extend lifespan independently from the known regulator. (2) The […] may act downstream from the known regulator, converging on a single component of the known regulator's lifespan pathway. (3) The intervention may act upstream from or upon the known regulator, ultimately modulating lifespan through the genetic regulator.
In Step 1 of the LPT, the longevity intervention is applied to a strain in which a genetic regulator of lifespan is deleted. In the event that lifespan extension from the longevity intervention is observed in this background, only possibilities (1) and (2) above remain valid (FIG. 7B). If no lifespan extension is observed, then possibilities (2) and (3) remain valid. Possibility (2) cannot be ruled out in this step, since non-saturating action by the genetic regulator could leave room for lifespan extension by the longevity intervention, while saturating action would preclude it.
In Step 2 of the LPT, an epistatic agent, which prevents lifespan extension from the longevity agent, is applied to a strain in which some upstream member of the genetic regulator's lifespan pathway has been modified to extend lifespan. This step differentiates possibility (2) from the remaining possibility after Step 1. In the event that lifespan extension from the genetic regulator's pathway is suppressed by the epistatic agent, this determines that possibility (2) is correct. In the event that no epistasis is observed, the remaining possibility, (1) or (3), is correct (FIG. 7C).

C. elegans = assay: Roundworm (C. elegans) lifespan extension; type: in vivo, Caenorhabditis elegans; details: 10 μM in NGM plates, treated for duration of lifespan, vs control
Description: Synchronized animals were obtained using the egg-laying method, allowing young […] eggs for 4 hours on bacteria-seeded plates. For each treatment group, 120 synchronized day-1 adults were used. All experiments were carried out at 20° C. Treatment groups were blinded. Nematode growth media (NGM) plates were made for each treatment group: Negative control (DMSO), Mycophenolic Acid (10 μM in DMSO), and Terreic Acid (10 μM in DMSO). The compounds were added to NGM media before pouring the plates. The plates were then dried overnight before moving them to 4° C. to prevent degradation of the compounds. Plates were seeded with 100 μL of 10× concentrated OP50 E. coli, and dried overnight at room temperature. Plates were UV treated with a UVP CL-1000 Ultraviolet Crosslinker, run twice on the energy setting ‘9999’ for about 5 minutes each run. Worms were transferred to new plates every 2-4 days. Viability was scored every day, with death determined by lack of response to a platinum wire. Missing worms, or those that died due to internal hatching were censored.

Saccharomyces cerevisiae = assay: High-Life (High throughput replicative Lifespan measurement) flow cytometry assay in MEP yeast; type: cell-based; details: 10 μM, 24 hours in culture, 3-4 replicate wells, repeat of screen hits
Description: Cells were labeled with NHS-fluorescein as described above, then diluted to 20 cells/μL in media. 80 μL/well was aliquoted to 384-well plates, which were covered with a breathable membrane and placed on a shaker platform in a humidified incubator. After 3 hours, the plates were removed from the incubator and each well was treated with 20 μL pre-warmed, 30° C. 5 μM β-estradiol in media. In the case of ibuprofen or compound-treated wells, the compound was diluted in this volume at a 5× concentration to achieve a final concentration of 10 μM, or 100 μM for ibuprofen. The plates were then returned to the incubator. At indicated times, one plate was removed from the incubator and placed on an autosampler cooled to 8° C. attached to a Stratedigm flow cytometer. The cytometer was set to automatically add and mix 20 μL of aqueous solution containing 60 μg/mL CF405M-WGA (Biotium 29028) and propidium iodide (Sigma P4864) prior to acquiring 80 μL of sample for each well.
In order to test the lifespan of model organisms on both a large-scale and with quick turn-around, a massively multiplexed method was developed to measure replicative lifespan in the short-lived model organisms Saccharomyces cerevisiae. The protocol uses green-fluorescent labeling to identify progenitor cells, red-fluorescent labeling to differentiate non-viable cells, and blue-fluorescent labeling of bud scars to determine replicative age (FIG. 1). Each parameter is measured using a flow cytometer.
To achieve high throughput, the measurement system was automated, and the assay was performed in 384-well plates. The assay was performed using an autosampler-equipped flow cytometer, in a volume of 100 μL. Growth of even a single cell and its progeny in such a small volume will result in nutrient starvation before the natural replicative lifespan is exhausted; therefore to circumvent this issue, High-Life experiments were performed in the background of the Mother Enrichment Program (MEP) (Lindstrom and Gottschling, Genetics. 2009 October; 183(2):413-22). MEP strains express a CRE recombinase fused to an estrogen-binding domain for only a short time after birth. In the presence of β-estradiol, the recombinase translocates to the nucleus where it can excise two essential genes that have been modified to contain the exogenous LoxP sequence. Addition of β-estradiol to the media thus renders newborn daughters inviable without affecting existing mother cells, preventing exponential growth of the cell population and nutrient depletion (FIG. 2A).
The High-Life method was then tested to determine if it was suitable to screening for compounds that extend replicative lifespan. […] The effect of these compounds on High-Life readings was assayed after 24 hours in culture at 10 μM concentration. As a positive control, ibuprofen was used.

For CC(C)C[C@@H](C=O)NC(=O)[C@H](CC(C)C)NC(=O)[C@H](CC(C)C)NC(=O)OCc1ccccc1 [MG-132] (Cbz-Leu-Leu-Leu-aldehyde), the “rate of fluorescence increase in proteasome assay (negative control)” value (proteasome; 50 μM MG132) was “low rate of fluorescence increase”.
Nc1nc2nc[nH]c2c(=O)[nH]1 [guanine] was tested, and the “reversal of lifespan extension conferred by SIR2 overexpression (LPT step 2)” value (S. cerevisiae; SIR2 overexpression, guanine as epistatic agent) was “did not reverse the lifespan extension”, the “suppression of lifespan extension in ΔHXK2 strain (LPT step 2)” value (S. cerevisiae; ΔHXK2 strain, guanine as epistatic agent) was “did not suppress lifespan extension” and the “suppression of lifespan extension in ΔTOR1 strain (LPT step 2)” value (S. cerevisiae; ΔTOR1 strain, guanine as epistatic agent) was “did not suppress lifespan extension”. For the same molecule, the “suppression of lifespan extension from UBR2 deletion (LPT step 2)” value (S. cerevisiae; ΔUBR2 strain, guanine supplementation) was “partially suppressed lifespan extension” and the “proteasome activity in ΔUBR2 cells” value (proteasome; ΔUBR2 cells, presence vs absence of guanine) was “did not alter proteasome activity”.
For CC1=C(O)C(=O)[C@@H]2O[C@@H]2C1=O [terreic acid], the “lifespan of C. elegans” value (C. elegans) was “measurable extension of lifespan; also recorded: statistically significant lifespan extension”, the “average High-Life readings (progenitor fraction viable vs CF405M intensity) relative to controls” value (Saccharomyces cerevisiae) was “at least slightly above controls” and the “extension of mean RLS” value (S. cerevisiae; 10 μM compound, wild-type haploid cells, Replicator device) was 15%.
